The source made the active and inactive calls. No cut-off for these calls is given here.
How the values were obtained:
[1] = biological target: T1, Dihydrofolate reductase (Mycobacterium tuberculosis, UniProt P9WNX1); assay: Inhibition of recombinant Mycobacterium tuberculosis DHFR expressed in Escherichia coli BL21(DE3) cells using DHF as substrate and NADPH as cofactor by fluorimetric analysis
T1 sequence (P9WNX1 whole entry): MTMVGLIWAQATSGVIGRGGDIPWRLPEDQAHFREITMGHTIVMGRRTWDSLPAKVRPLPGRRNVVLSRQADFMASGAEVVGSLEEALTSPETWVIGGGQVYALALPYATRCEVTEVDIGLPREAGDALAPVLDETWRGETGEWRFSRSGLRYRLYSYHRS

[2] = biological target: T2, Dihydrofolate reductase (Mycobacterium tuberculosis) (UniProt P9WNX1); assay: Potency index, ratio of MB872 IC50 to test compound IC50 for recombinant Mycobacterium tuberculosis DHFR expressed in Escherichia coli BL21(DE3) cells using DHF as substrate and NADPH as cofactor by fluorimetric analysis
T2 sequence (whole entry): T1 sequence (P9WNX1 whole entry)

[3] = biological target: T2, Dihydrofolate reductase (Mycobacterium tuberculosis); assay: Uncompetitive inhibition of Mycobacterium tuberculosis DHFR assessed as constant Km using DHF as substrate and NADPH as cofactor by Michaelis-Menten analysis
[4] = biological target: T2, Dihydrofolate reductase (Mycobacterium tuberculosis); assay: Uncompetitive inhibition of Mycobacterium tuberculosis DHFR assessed as varying Vmax using DHF as substrate and NADPH as cofactor by Michaelis-Menten analysis
[5] = biological target: T2, Dihydrofolate reductase (Mycobacterium tuberculosis); assay: Potency index, ratio of trimethoprim IC50 to test compound IC50 for recombinant Mycobacterium tuberculosis DHFR expressed in Escherichia coli BL21(DE3) cells using DHF as substrate and NADPH as cofactor by fluorimetric analysis

Structure (SMILES)	IC50 [1] [µM]	Ratio IC50 [2]	further results
O=C(O)c1cccc(COc2ccc(O)cc2)c1	36	13 to 21	
COC(=O)c1cccc(COc2ccc(OC)cc2)c1	242		
COC(=O)c1cccc(COc2ccc([N+](=O)[O-])cc2)c1	35	13 to 21	
COC(=O)c1cccc(CSc2ccccc2)c1	76		
O=C(O)c1ccc(COc2ccccc2)cc1	442		
COC(=O)c1ccc(COc2ccc(OC)cc2)cc1	26	16	
O=C(O)c1cccc(OCc2ccccc2)c1	230		
O=C(O)c1cccc(COc2ccccc2)c1	≥ 500		
COC(=O)c1ccc(COc2ccccc2)cc1	152		
COc1ccc(OCc2cccc(C(=O)O)c2)cc1	119		
COC(=O)c1cccc(OCc2ccccc2)c1	> 500		
O=C(O)c1cccc(COc2ccc([N+](=O)[O-])cc2)c1	23	13 to 21	
COC(=O)c1cccc(-n2cc(COc3ccccc3)nn2)c1	81		
COc1ccc(OCc2ccc(C(=O)O)cc2)cc1	31	19	
O=C(O)c1cccc(CSc2ccccc2)c1	128		
c1ccc(OCc2cccc(-c3nnn[nH]3)c2)cc1	454		
COC(=O)c1cccc(COc2ccccc2)c1	> 500		
O=C(O)c1cccc(-n2cc(COc3ccccc3)nn2)c1	> 500		
O=C(O)c1cccc(CNc2ccccc2)c1	7	71	inhibition [3]: Active; inhibition [4]: Active; Ratio IC50 [5]: 13

From ChEMBL document CHEMBL4622960, “Design, synthesis and biological activity of novel substituted 3-benzoic acid derivatives as MtDHFR inhibitors” (Bioorg Med Chem, 2020)
